Results published in PubChem BioAssay AID179 (DTP/NCI, 2004).
The source made the active and inactive calls.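 How the source made its calls: active means compounds giving half or more protection of infected cells from virus-caused growth loss, again on retest; inactive means the rest.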

Tested on: CEM cells HIV-1 protection, formazan growth assay
Test: NCI AIDS Antiviral Assay
Details: for IC50: measured here: growth of uninfected CEM cells
Summary of the method: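 Steps: treat uninfected and HIV-1-infected human CEM cells at five drug levels; quantify growth by soluble formazan; retest any compound reaching 50% protection; classify actives from the retest.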

Row | Compound | EC50 | IC50 | outcome
1 | CC1(S)CC2C(CC1Sc1ccccc1)C2(C)C (stereo not drawn) | > 25.7 µM | > 25.7 µM | 
2 | CC(=O)c1sc2c(c1O)c(=O)n(-c1ccccc1)c(=S)n2-c1ccccc1 | > 240 µM | 70.8 µM | 
3 | O=[N+]([O-])C1(CO)COC(CCc2ccccc2)OC1 (stereo not drawn) |  |  | inactive
4 | CC1(O)OC(=O)c2ccc3ccccc3c21 (stereo not drawn) | > 398 µM | > 398 µM | 
5 | O=NC1(c2ccccc2)CCCCC1[N+](=O)[O-] (stereo not drawn) | > 200 µM | > 200 µM | 
6 | Cc1cc(N)ccc1C=O | > 200 µM | > 200 µM | 
7 | COc1cc2nncc(SCc3ccc(Cl)cc3Cl)c2cc1OC | > 56.2 µM | 52.5 µM | 
8 | COc1ccc(/C=c2\[nH]c3nc(=O)c(N4CCOCC4)c(N)n3c2=O)cc1 | > 200 µM | > 200 µM | 
9 | COC(=O)COc1ccc([As](=O)(O)O)cc1 | > 200 µM | > 200 µM | 
10 | CNc1nc(C(N)=O)c(N)s1 | > 200 µM | > 200 µM | 
11 | Cc1nn(C(=O)Cc2ccccc2)c2c1C(c1ccc(Cl)cc1)SC(N)=N2 (stereo not drawn) | 110 µM | 158 µM | 
12 | COc1cc2cc(C(=O)N3CC(CCl)c4c3cc(NC(=O)OCc3ccc([N+](=O)[O-])cc3)c3ccccc43)[nH]c2c(OC)c1OC (stereo not drawn) | > 200 µM | 2.88 µM | 
13 | Cc1cc2cc3ccccc3cc2c(=O)[nH]1 | > 200 µM | 182 µM | 
14 | CCCCCCCCCCNCCSSCc1ccc(Cl)cc1 |  |  | inactive
15 | NC(=S)NN=C1CSSC1 | > 200 µM | 11.7 µM | 
16 | OC(c1ccc(-c2ccccc2)cc1)C(F)(F)c1nc2ccccc2o1 (stereo not drawn) | > 200 µM | 34.7 µM | 
17 | Cc1ccc(S(=O)(=O)Nn2c(O)c(C#N)c(-c3ccc([N+](=O)[O-])cc3)c(C#N)c2=O)cc1 | > 200 µM | > 200 µM | 
18 | O=[N+]([O-])C(/C=C(\Cl)[N+](=O)[O-])=C(N1CCOCC1)N1CCOCC1 | > 200 µM | 110 µM | 
19 | S=C(NN1CCOCC1)SSC(=S)NN1CCOCC1 | > 20 µM | 0.933 µM | 
20 | CCCCCCC(=O)CC(=O)C(=O)Nc1ccccc1C | > 25.1 µM | > 25.1 µM | 
21 | Cc1ccc(S(=O)(=O)OC(c2ccccc2)c2ccccc2)cc1 | > 15.5 µM | 10.5 µM | 
22 | COc1ccc(C2SC(N)=Nc3c2c(C)nn3C(=O)Cc2ccccc2)cc1 (stereo not drawn) | 91.2 µM | 355 µM | 

Row | Compound | EC50 | IC50 | outcome
23 | C/C(=N/Nc1ccc([N+](=O)[O-])cc1[N+](=O)[O-])C(CC(C(=O)NCc1ccccc1)/C(C)=N\Nc1ccc([N+](=O)[O-])cc1[N+](=O)[O-])C(=O)NCc1ccccc1 (stereo not drawn) | > 6.92 µM | > 6.92 µM | 
24 | O=C(O)c1nc2cc(C(F)(F)F)ccc2nc1Nc1ccc(Cl)c(Cl)c1 | > 200 µM | 10 µM | 
25 | CNC(SC)=C1C(=O)OC(C)(C)OC1=O | > 1070 µM | 457 µM | 
26 | CN(O)C(=O)c1cccc(Cl)c1 | > 200 µM | 112 µM | 
27 | C=C1CCC([N+](=O)[O-])[C@](C)(N=O)CC[C@@H]2C1CC2(C)C (stereo partly drawn) | > 200 µM | 17 µM | 
28 | COc1cc(O)c2c(=O)c(O)c(-c3ccc(O)c(OC)c3)oc2c1 | > 200 µM | > 200 µM | 
29 | O=[N+]([O-])C1C2C=CC(C2)[C@H]1c1ccccc1Cl (stereo partly drawn) |  |  | inactive
30 | O=P1(Cc2ccccc2)OC2CC(Cl)CC(C2)O1 (stereo not drawn) | > 126 µM | > 126 µM | 
31 | CCCCCCOc1ccc(C(=N)N(CCCC)CCCC)c2ccccc12 | > 200 µM | 3.39 µM | 
32 | COc1ccc(CC2C(=O)NC(=O)NC2=O)cc1OCc1ccccc1 |  |  | inactive
33 | CC(C)/C=N\n1c(N)c(C#N)c(C#N)c1C(C)C | > 200 µM | 63.1 µM | 
34 | O=C1CCCN1CCCN=c1cc2n(-c3ccc(Cl)cc3)c3ccccc3nc-2cc1Nc1ccc(Cl)cc1 |  |  | inactive
35 | Cc1cccc2c1N(C(=O)/C=C\C(=O)O)C(c1c(C)[nH]c3ccccc13)C2 (stereo not drawn) | > 138 µM | 75.9 µM | 
36 | NC1=CN(Cc2ccccc2)C2=N/C(=C\c3ccccc3)C(=O)N12 | > 200 µM | 77.6 µM | 
37 | COC1=CC(=O)[C@@]2(C)C(C)[C@H](c3ccccc3)[C@H]2C1=O (stereo partly drawn) | > 251 µM | > 251 µM | 
38 | Cc1cc(Cl)ccc1N=C1NC(=O)C(CC(=O)Nc2cccc(C)c2C)S1 (stereo not drawn) | > 234 µM | 66.1 µM | 
39 | CC(=O)CC(=O)ON(C)C(C)=O | > 1450 µM | > 1450 µM | 
40 | CC(C)C(=O)OCN(C)c1nc(N(C)COC(=O)C(C)C)nc(N(C)COC(=O)C(C)C)n1 | > 200 µM | 18.6 µM | 
41 | Cc1cccc(C)c1NC(=O)CCC(=O)NNc1nnc(C)n1N | > 398 µM | > 398 µM | 
42 | CC(CC(=O)N1C2CC3CCC2(CS1(=O)=O)C3(C)C)[Si](C)(C)C (stereo not drawn) | > 200 µM | 74.1 µM | 
43 | NCCCCNCCCN1CCOC1=O | > 200 µM | > 200 µM | 
44 | CNc1ccc([N+](=O)[O-])cc1C(=O)N1CCC[C@H]1CO | > 200 µM | > 200 µM | 
